“Also recorded” adds a separate entry of the source. Like-named read-outs stand apart in the source and are kept apart here.
What was measured:
[1] = Steady-state plasma pharmacokinetics, open-label randomized three-way crossover study, drugs alone or in combination; conditions: for Tmax / half-life / AUC(0-t) / Cmax: human, in vivo; for effect of amantadine coadministration on PK (in words): oseltamivir 75 mg BID + amantadine 100 mg BID
[2] = Safety and tolerability (adverse events) in the crossover study; conditions: eight adverse events in total during the trial; 17 subjects
[3] = cited from earlier work; for mean Cmax: twice daily oral dosing with 75 mg oseltamivir capsule; for mean Cmax / AUC0-12: ref Oseltamivir package insert; for AUC0-12: values reported earlier, 75 mg oseltamivir twice daily
[4] = test system: recombinant amantadine sensitive A/Vietnam/1203/04 (H5N1) virus; conditions: mice, lethal challenge, equivalent human therapeutic doses, ref Ilyushina, in press; cited from earlier work
[5] = test system: cytochrome P450 isoforms; set-up: method as in Tamiflu package insert; conditions: ref Tamiflu package insert; cited from earlier work
[6] = test system: all strains of influenza A and B tested, including H5N1; conditions: no reference given; cited from earlier work
[7] = set-up: method as in Symmetrel package insert; conditions: ref Symmetrel package insert, cited from earlier work
[8] = oseltamivir, combination therapy with amantadine 100 mg BID
[9] = oseltamivir, oseltamivir monotherapy 75 mg BID
[10] = oseltamivir carboxylate, combination therapy with amantadine 100 mg BID
[11] = oseltamivir carboxylate, oseltamivir monotherapy 75 mg BID
[12] = under fasted conditions, ref Tamiflu package insert
[13] = under fed conditions, ref Tamiflu package insert

SMILES: CCOC(=O)C1=C[C@@H](OC(CC)CC)[C@H](NC(C)=O)[C@@H](N)C1 [Oseltamivir, oseltamivir, reference compound]
- Tmax [1]: 0.85 h
- half-life [1]: 1.83 h
- AUC(0-t) ([1]; 75 mg): 161 ng·h/mL
- Cmax ([1]; 75 mg): 60.2 ng/mL
- Tmax ([1]; 75 mg): 0.76 h
- half-life ([1]; 75 mg): 1.85 h
- effect of amantadine coadministration on PK (in words) [1]: did not meaningfully affect
- apparent clearance, geometric mean [1, 8]: 505 L/h
- apparent distribution volume, geometric mean [1, 8]: 1329 L
- apparent clearance, geometric mean [1, 9]: 465 L/h
- apparent distribution volume, geometric mean [1, 9]: 1245 L
- number of adverse events reported, all mild [2]: three
- exposure to oseltamivir as share of the total exposure ([3]; after oral dosing, ref Tamiflu package insert): less than 5%
- share of absorbed oseltamivir eliminated by conversion to oseltamivir carboxylate ([3]; ref Tamiflu package insert): > 90%
- mean Cmax [3]: 65.2 ng/mL
- AUC0-12 [3]: 112 ng·h/mL
- animals protected from mortality [4]: 20%
- substrate for, or inhibitor of, cytochrome P450 isoforms [5]: Neither oseltamivir nor oseltamivir carboxylate is a substrate for, or inhibitor of, cytochrome P450 isoforms; also recorded: Neither oseltamivir nor oseltamivir carboxylate is a substrate for
- effectiveness (in words) [6]: effective against all strains of influenza A and B tested, including H5N1

SMILES: CC(=O)NC12CC3CC(CC(C3)C1)C2 [Acetylamantadine, acetylamantadine]
- detection of acetylamantadine in plasma ([1]; current study, seventeen volunteers, LLOQ approximately 5.00 ng/mL): not detected
- plasma acetylamantadine as share of the concurrent amantadine plasma concentration ([7]; 5 of 12 healthy volunteers, 200 mg dose of amantadine): up to 80%
- N-acetylated metabolite in human urine, share of the administered dose [7]: 5-15%
- detection of acetylamantadine in plasma ([7]; remaining seven of 12 volunteers): not detected

SMILES: CCC(CC)O[C@@H]1C=C(C(=O)O)C[C@H](N)[C@H]1NC(C)=O [Oseltamivir carboxylate, oseltamivir carboxylate]
- Tmax [1]: 3.07 h
- half-life [1]: 6.15 h
- AUC(0-t) ([1]; 75 mg): 3430 ng·h/mL
- Cmax ([1]; 75 mg): 407 ng/mL
- Tmax ([1]; 75 mg): 3.22 h
- half-life ([1]; 75 mg): 6.09 h
- effect of amantadine coadministration on PK (in words) [1]: did not meaningfully affect
- apparent clearance, geometric mean [1, 10]: 22.3 L/h
- apparent distribution volume, geometric mean [1, 10]: 197 L
- apparent clearance, geometric mean [1, 11]: 21.9 L/h
- apparent distribution volume, geometric mean [1, 11]: 192 L
- share of an oral dose reaching the systemic circulation as oseltamivir carboxylate ([3]; oral oseltamivir phosphate, ref Tamiflu package insert): At least 75%
- mean Cmax [3]: 348 ng/mL
- area under the plasma concentration time curve [3, 12]: 6218 ng·h/mL
- peak plasma concentration [3, 12]: 551 ng/mL
- area under the plasma concentration time curve [3, 13]: 6069 ng·h/mL
- peak plasma concentration [3, 13]: 441 ng/mL
- AUC0-12 [3]: 2719 ng·h/mL
- substrate for, or inhibitor of, cytochrome P450 isoforms [5]: Neither oseltamivir nor oseltamivir carboxylate is a substrate for, or inhibitor of, cytochrome P450 isoforms; also recorded: Neither oseltamivir nor oseltamivir carboxylate is a substrate for

Reference: PMC2110886 (PLoS ONE, 2007)
